We go through eleven compounds from EP0442769A2 (priority 1990, dated 1991).

The nature of data set [1]: Stability in haemolysate. The class given is in vitro ADME. On the set-up: key: + : stable.; *a: * : stabilité dans le sérum frais à 37°C au bout de 24h : on ne retrouve que 8 à 12%, 78% et 65% de la quantité de départ dans le sérum respectivement pour (a), (b) et (c).; *b: * : stabilité dans le sérum frais à 37°C au bout de 24h : on ne retrouve que 8 à 12%, 78% et 65% de la quantité de départ dans le sérum respectivement pour (a), (b) et (c).; *c: * : stabilité dans le sérum frais à 37°C au bout de 24h : on ne retrouve que 8 à 12%, 78% et 65% de la quantité de départ dans le sérum respectivement pour (a), (b) et (c). The source says: (§1) Ces composés ont été également testés pour leur absorption membranaire et stabilité érythrocitaire et plasmatique.

Data set [2] in a line: Stability in fresh serum. The conditions noted are these: for Stabilité dans sérum frais 37°C / remaining at 24 h: * = fraction of starting quantity found after 24h, 37°C; for remaining at 24 h: read-out: Stabilité dans sérum frais 37°C. In kind it is in vitro ADME. On the set-up: key to Stabilité dans sérum frais 4°C / Stabilité dans sérum frais 37°C: + : stable.; *a: * : stabilité dans le sérum frais à 37°C au bout de 24h : on ne retrouve que 8 à 12%, 78% et 65% de la quantité de départ dans le sérum respectivement pour (a), (b) et (c).; *b: * : stabilité dans le sérum frais à 37°C au bout de 24h : on ne retrouve que 8 à 12%, 78% et 65% de la quantité de départ dans le sérum respectivement pour (a), (b) et (c).; *c: * : stabilité dans le sérum frais à 37°C au bout de 24h : on ne retrouve que 8 à 12%, 78% et 65% de la quantité de départ dans le sérum respectivement pour (a), (b) et (c).
Excerpt: as §1

Data set [3] deals with T1, sites opioides de type µ (Oryctolagus cuniculus, UniProt G1TAQ8).
T1 construct: fraction membranaire brute obtenue à partir de tissu frais (cervelet de lapin, cervelet de cobaye); from tissue; host or cells: rabbit cerebellum (New Zealand rabbits), crude membrane fraction
As to the kind of experiment: [3H]diprenorphine competition binding, crude membrane fraction of rabbit cerebellum. Also on record: species or system lapin. The method, then:
(§2) Les animaux utilisés sont des lapins néo-zélandais d'environ 1500 g et des cobayes tricolores d'environ 300 g.
(§3) La préparation utilisée est une fraction membranaire brute obtenue à partir de tissu frais (cervelet de lapin, cervelet de cobaye) par une méthode standard d'homogénéisation et de centrifugation différentielle. La suspension finale est en tampon tris-HCl (50 mM, pH 7,4) et contient environ 5 mg de protéine par ml.
(§4) [15,16(n)-³H] diprenorphine à 25-30 CI/mmol (Amersham International plc, Amersham, Angleterre).
(§5) Radioligand (0,3 pmol) de [³H] diprenorphine et fraction membranaire brute (0,25 mg de protéine) sont incubés pendant 1 heure à 25°C dans un volume final de 1,0 ml en tampon Tris-HCl (50 mM, pH 7,4) : • (i) en absence de toute drogue compétitrice , • (ii) en présence de 12 concentrations croissantes de la nouvelle drogue et, • (iii) en présence de 10 µmol/l de diprenorphine non radioactive.
(§6) Le contenu de chaque tube est ensuite rapidement filtré (sous vide) sur disques de fibre de verre (Whatman GF/B) disposés sur un jeu de rampes de filtration Millipore modèle 1225. Les filtres sont rincés avec 2 x 3 ml de tampon froid (O-2°C) puis séchés sous une lampe IR pendant 15 minutes. La radioactivité de chaque filtre, dans 3 ml de cocktail Ready-sol MB (Beckman) est comptée avec un compteur à scintillation liquide Kontron modèle MR 300.
(§7) A partir des paramètres mesurés, il est ensuite calculé les différentes constantes Kx pour les sites considérés.
(§8) Ces valeurs ont été calculées à partir des valeurs mesurées des concentrations CI.50 de drogue inhibant de 50 % la liaison à l'équilibre de (3H) diprenorphine utilisée à la concentration fixe de 0,3 nM.

Data set [4] deals with GR chargés. In words: Extracellular leak from loaded red blood cells, 24 h incubation. The class given is in vitro ADME.
Excerpt: as §1

Data set [5] deals with membrane érythrocytaire. In words: Membrane adsorption at haematocrit 45%. In kind it is in vitro ADME.
Excerpt: as §1

Data set [6] addresses T2, sites opioides de type k (Cavia porcellus, UniProt P41144).
T2 construct: fraction membranaire brute obtenue à partir de tissu frais (cervelet de lapin, cervelet de cobaye); from tissue; host or cells: guinea pig cerebellum (tricolour guinea pigs), crude membrane fraction
In words: [3H]diprenorphine competition binding, crude membrane fraction of guinea pig cerebellum. On the set-up: species or system cobaye. The conditions noted are these: guinea pig cerebellum membranes; for IC50: [3H]diprenorphine 0,3 nM, 1 h at 25°C, (n) in brackets, read-out: I50κ (concentration inhibitrice 50); for Ki: calculated from the measured CI.50, read-out: KIκ (constante de dissociation apparente du composé testé). How it is done:
as §2, §3, §4, §5, §6, §7, §8

Setting [7] is: [3H]diprenorphine 0,3 nM, rabbit cerebellum membranes, 1 h at 25°C, (n) in brackets, read-out: I50µ (concentration inhibitrice 50).
Setting [8] is: calculated from the measured CI.50, rabbit cerebellum membranes, read-out: KIµ (constante de dissociation apparente du composé testé).

Each structure is given as a SMILES string. Where two headings read alike, the source gives them in different places.

For `C=CCN1CC[C@]23c4c5ccc(OS(=O)(=O)O)c4O[C@H]2C(=O)CC[C@@]3(OS(=O)(=O)O)[C@H]1C5` [naloxone-3,14-disulfate], in data set [1], the “Stabilité dans hémolysat 4°C” value is reported as “+” and the “Stabilité dans hémolysat 37°C” value was “+”. In data set [2], the “Stabilité dans sérum frais 4°C” value is listed as “+” and the “Stabilité dans sérum frais 37°C” value was “+”. Moreover, the IC50 in data set [3] (setting [7]) turned out to be 20800 nM. Further, the Ki in data set [3] (setting [8]) was 5200 nM. In data set [4], the “GR chargés : Incubation 24h Fuite extra-cellulaire 4°C” value came out at 5% and the “GR chargés : Incubation 24h Fuite extra-cellulaire 37°C” value is 50%. In data set [5], the “Adsorption membranaire à Hte 45%” value turned out to be 34%. Also, in data set [6], the IC50 was > 100000 nM and the Ki is > 25000 nM.

Regarding `C=CCN1CC[C@]23c4c5ccc(OP(=O)(O)OC)c4O[C@H]2C(=O)CC[C@@]3(O)[C@H]1C5` [naloxone-3-phosphate(OMe)], in data set [1], the “Stabilité dans hémolysat 4°C” value is on record as “+” and the “Stabilité dans hémolysat 37°C” value was “+”. Moreover, in data set [2], the “Stabilité dans sérum frais 4°C” value was “+” and the “Stabilité dans sérum frais 37°C” value was “+”. In addition, the IC50 in data set [3] (setting [7]) came out at 1200 nM. In addition, the Ki in data set [3] (setting [8]) is 260 nM. Moreover, in data set [4], the “GR chargés : Incubation 24h Fuite extra-cellulaire 4°C” value was 6% and the “GR chargés : Incubation 24h Fuite extra-cellulaire 37°C” value worked out at 40%. The “Adsorption membranaire à Hte 45%” value in data set [5] came out at 10%.

As for `C=CCN1CC[C@]23c4c5ccc(OP(=O)(O)O)c4O[C@H]2C(=O)CC[C@@]3(O)[C@H]1C5` [naloxone-3-phosphate], in data set [1], the “Stabilité dans hémolysat 4°C” value is on record as “+” and the “Stabilité dans hémolysat 37°C” value is listed as “+”. Also, in data set [2], the “Stabilité dans sérum frais 4°C” value is listed as “+” and the “Stabilité dans sérum frais 37°C” value was “+”. Besides, the IC50 in data set [3] (setting [7]) stood at 3.5 ± 0.3 nM. Further, in data set [3] (setting [8]), the Ki is 0.9 nM. Further, in data set [3] (result in words), the “affinité apparente pour les sites opioïdes µ” value is “activité légèrement plus élevée que la naloxone”. In data set [4], the “GR chargés : Incubation 24h Fuite extra-cellulaire 4°C” value stood at 1% and the “GR chargés : Incubation 24h Fuite extra-cellulaire 37°C” value is listed as 12%. In addition, the “Adsorption membranaire à Hte 45%” value in data set [5] turned out to be 0%.

On to `C=CCN1CC[C@]23c4c5ccc(OS(=O)(=O)O)c4O[C@H]2C(=O)CC[C@@]3(O)[C@H]1C5` [naloxone-3-sulfate], for which the IC50 in data set [3] (setting [7]) was 4300 nM. The Ki in data set [3] (setting [8]) is 1070 nM.

On to `C=CCN1CC[C@]23c4c5ccc(OP(=O)(O)OP(=O)(O)OP(=O)(O)O)c4O[C@H]2C(=O)CC[C@@]3(O)[C@H]1C5` [naloxone-3-triphopshate], for which, in data set [1], the “Stabilité dans hémolysat 4°C” value was “+” and the “Stabilité dans hémolysat 37°C” value is listed as “+”. Further, in data set [2], the “Stabilité dans sérum frais 4°C” value is recorded as “+” and the remaining at 24 h was 78%. In addition, in data set [3] (setting [7]), the IC50 worked out at 21 ± 2 nM. In addition, in data set [3] (setting [8]), the Ki was 5.2 nM. Besides, in data set [4], the “GR chargés : Incubation 24h Fuite extra-cellulaire 4°C” value came to 0% and the “GR chargés : Incubation 24h Fuite extra-cellulaire 37°C” value stood at 0%. Moreover, in data set [5], the “Adsorption membranaire à Hte 45%” value was determined as 22%. Besides, in data set [6], the IC50 was determined as 106 ± 15 nM and the Ki is 27 nM.

Take `O=C1CC[C@@]2(O)[C@H]3Cc4ccc(O)c5c4[C@@]2(CCN3CC2CC2)[C@H]1O5` [naltrexone, reference compound]: in data set [3], the IC50 was 1.2 ± 0.2 nM and the Ki stood at 0.3 nM.

Take `O=C1CC[C@@]2(OS(=O)(=O)O)[C@H]3Cc4ccc(OS(=O)(=O)O)c5c4[C@@]2(CCN3CC2CC2)[C@H]1O5` [naltrexone-3,14-disulfate]: in data set [1], the “Stabilité dans hémolysat 4°C” value is reported as “+” and the “Stabilité dans hémolysat 37°C” value was “+”. Also, in data set [2], the “Stabilité dans sérum frais 4°C” value is “+” and the “Stabilité dans sérum frais 37°C” value is “+”. Further, the IC50 in data set [3] (setting [7]) was 7850 nM. In data set [3] (setting [8]), the Ki was 1960 nM. Also, in data set [4], the “GR chargés : Incubation 24h Fuite extra-cellulaire 4°C” value stood at 15% and the “GR chargés : Incubation 24h Fuite extra-cellulaire 37°C” value is recorded as 70%. The “Adsorption membranaire à Hte 45%” value in data set [5] is listed as 40%. Also, in data set [6], the IC50 was found to be 39000 nM and the Ki was 9700 nM.

For `COP(=O)(O)Oc1ccc2c3c1O[C@H]1C(=O)CC[C@@]4(O)[C@@H](C2)N(CC2CC2)CC[C@]314` [naltrexone-3-phosphate(OMe)], in data set [1], the “Stabilité dans hémolysat 4°C” value is given as “+” and the “Stabilité dans hémolysat 37°C” value is reported as “+”. In data set [2], the “Stabilité dans sérum frais 4°C” value is “+” and the “Stabilité dans sérum frais 37°C” value was “+”. For the same compound, the IC50 in data set [3] (setting [7]) amounted to 130 ± 9 nM. Besides, the Ki in data set [3] (setting [8]) was 33 nM. In data set [4], the “GR chargés : Incubation 24h Fuite extra-cellulaire 4°C” value is on record as 5% and the “GR chargés : Incubation 24h Fuite extra-cellulaire 37°C” value amounted to 40%. In addition, the “Adsorption membranaire à Hte 45%” value in data set [5] turned out to be 10%. In data set [6], the IC50 stood at 270 ± 35 nM and the Ki was 68 nM.

For `O=C1CC[C@@]2(O)[C@H]3Cc4ccc(OP(=O)(O)O)c5c4[C@@]2(CCN3CC2CC2)[C@H]1O5` [naltrexone-3-phosphate], in data set [1], the “Stabilité dans hémolysat 4°C” value is recorded as “+” and the “Stabilité dans hémolysat 37°C” value is on record as “+”. In addition, in data set [2], the “Stabilité dans sérum frais 4°C” value was “+” and the remaining at 24 h was 8 to 12%. Further, the IC50 in data set [3] (setting [7]) was found to be 22 ± 2 nM. For the same compound, the Ki in data set [3] (setting [8]) is 5.6 nM. In data set [4], the “GR chargés : Incubation 24h Fuite extra-cellulaire 4°C” value is 1% and the “GR chargés : Incubation 24h Fuite extra-cellulaire 37°C” value is on record as 12%. Further, the “Adsorption membranaire à Hte 45%” value in data set [5] is listed as 22%. In addition, in data set [6], the IC50 is 30 ± 3 nM and the Ki is 7.5 nM.

On to `O=C1CC[C@@]2(O)[C@H]3Cc4ccc(OS(=O)(=O)O)c5c4[C@@]2(CCN3CC2CC2)[C@H]1O5` [naltrexone-3-sulfate], for which the IC50 in data set [3] (setting [7]) stood at 1540 nM; in data set [6] it was 2200 nM. Besides, the Ki in data set [3] (setting [8]) was 385 nM; in data set [6], 550 nM.

Consider `O=C1CC[C@@]2(O)[C@H]3Cc4ccc(OP(=O)(O)OP(=O)(O)OP(=O)(O)O)c5c4[C@@]2(CCN3CC2CC2)[C@H]1O5` [naltrexone-3-triphosphate], for which, in data set [1], the “Stabilité dans hémolysat 4°C” value is given as “+” and the “Stabilité dans hémolysat 37°C” value is “+”. Besides, in data set [2], the “Stabilité dans sérum frais 4°C” value is listed as “+” and the remaining at 24 h was 65%. For the same compound, the IC50 in data set [3] (setting [7]) was determined as 5.2 ± 0.4 nM. In addition, the Ki in data set [3] (setting [8]) was 1.3 nM. Further, in data set [4], the “GR chargés : Incubation 24h Fuite extra-cellulaire 4°C” value was 0% and the “GR chargés : Incubation 24h Fuite extra-cellulaire 37°C” value turned out to be 0%. Besides, the “Adsorption membranaire à Hte 45%” value in data set [5] came to 22%. In data set [6], the IC50 was determined as 15 ± 1.4 nM and the Ki is 3.8 nM.
